Data published in PubChem BioAssay AID1361 (SRMLSC, 2008).
Calls of active or inactive are those of the source. No rule for the calls is given here.

Assay: mitochondrial fusion inhibitors, confirmation, cell-based, chemical genetic, wild-type and mutant (AID 1361)
Settings: Cell-based mitochondrial fusion phenotype, imaging
[1] = mutant cells, measured here: mutant cell line IC50

Row | SMILES | IC50 (WT cells) | IC50 [1]
1 | CC(C)C(=O)Nc1ccc(C(=O)NNC(=O)CCCOc2ccc(Cl)cc2Cl)cc1 | > 25 µM (inactive) | > 25 µM
2 | O=C(c1ccccc1)c1cc(Cl)ccc1N1C(=O)C=CC1=O | > 25 µM (inactive) | > 25 µM
3 | O=C(c1ccc(C(F)(F)F)cc1)N1CCC(=O)N(C(COCc2ccc(Cl)cc2)Cc2ccccc2)CC1 (configuration not stated) | 19.1 µM | > 25 µM
4 | CCOC(=O)C1=C(C)NC(SC(C)=O)=NC1c1ccc(OC(C)=O)c(OC)c1 (configuration not stated) | > 25 µM (inactive) | > 25 µM
5 | Cc1ccc(C(NC(=O)NC(C)c2ccccc2)C(Cl)(Cl)Cl)cc1F (configuration not stated) | 10.9 µM | > 25 µM
6 | CCOC(=O)c1c(C)n(-c2ccc(C)cc2)c2ccc(OCC(O)CNCC3CCCO3)cc12 (configuration not stated) | 15 µM | > 25 µM
7 | CCOC(=O)C1=C(C)NC(=S)NC1c1ccc(-c2ccc(Cl)cc2)o1 (configuration not stated) | 10.4 µM | 24.2 µM
8 | Cc1cc(=O)n2[nH]c(-c3ccc(F)cc3)cc2n1 | > 25 µM (inactive) | > 25 µM
9 | CC(C)CCN(C(=S)Nc1cccc(F)c1)C(C)c1cccs1 (configuration not stated) | 19.4 µM | > 25 µM
10 | O=C(/C(=N\O)n1cncn1)c1ccc(Br)cc1Br | > 25 µM (inactive) | > 25 µM
11 | Cc1c(C)c2cc(Cl)c(O)c(CN3CCCC(C)C3)c2oc1=O (configuration not stated) | > 25 µM (inactive) | > 25 µM
12 | N#CC1=C(N)C2=CCCC[C@H]2[C@H](c2ccc(Br)cc2)C1(C#N)C#N | 4.48 µM | 7.07 µM
13 | Oc1ccc2ccccc2c1/C=N/c1nc2c(s1)CCCC2 | > 25 µM (inactive) | > 25 µM
14 | COc1nc(SC)nc(Cl)c1Cc1ccc(OC(C)C)cc1 | 24.1 µM | > 25 µM
15 | COc1ccc(NS(=O)(=O)c2cc(C(=O)O)ccc2C)cc1 | > 25 µM (inactive) | > 25 µM
16 | CCOC(=O)C1=C(C)C(c2cccc(Oc3ccccc3)c2)NC(=S)N1 (configuration not stated) | > 25 µM (inactive) | > 25 µM
17 | C/C(=N\N=C(/N)SC1CC(=O)N(c2cccc(Cl)c2)C1=O)c1cccs1 (configuration not stated) | > 25 µM (inactive) | > 25 µM
18 | CCC(C)n1c(SCc2ccccc2)nc2ccsc2c1=O (configuration not stated) | 22.9 µM | > 25 µM
19 | Clc1cccc(NCc2nnc(SCc3ccc(Cl)cc3Cl)o2)c1 | 10.6 µM | > 25 µM
20 | CCCCCCOC1(c2ccccc2)OC(=O)c2ccccc21 (configuration not stated) | 17 µM | 21.5 µM
21 | O=C1NC(=O)C(CCc2ccncc2)(Cc2cccc(Cl)c2Cl)C(=O)N1c1ccc(Br)cc1 (configuration not stated) | 10.1 µM | > 25 µM

Row | SMILES | IC50 (WT cells) | IC50 [1]
22 | CCn1ccnc1CN1CCc2c([nH]c3ccccc23)C1C1CCCCC1 (configuration not stated) | 17.6 µM | > 25 µM
23 | C/C(N)=C(/C#N)C(=O)COC(=O)c1cc(S(=O)(=O)N2CCCCC2)ccc1C | > 25 µM (inactive) | > 25 µM
24 | Cc1coc(C)c1C(=O)CC1(O)C(=O)Nc2cc(Cl)cc(Cl)c21 (configuration not stated) | > 25 µM (inactive) | > 25 µM
25 | CCc1c(C)nc2[nH]nc(-c3ccccc3)n2c1=O | > 25 µM (inactive) | > 25 µM
26 | COc1ccc(-c2nsc3c(N4CCCCC4C)ncnc23)cc1 (configuration not stated) | 18.9 µM | > 25 µM
27 | O=C(c1ccco1)N1CCN(C(=O)C2c3ccccc3Oc3ccccc32)CC1 | > 25 µM (inactive) | > 25 µM
28 | COCCN1C(=O)/C(=C/c2ccc(OCc3ccc(C(=O)O)cc3)c(OC)c2)SC1=Nc1ccccc1 | > 25 µM (inactive) | > 25 µM
29 | Cc1[nH]c2ccccc2c1/C=C(\C#N)C(=O)NC(C)c1ccccc1 (configuration not stated) | > 25 µM (inactive) | > 25 µM
30 | Cc1ccc(-n2c(-c3ccccc3)cc(/C=N/NC(=O)CC#N)c2-c2ccccc2)cc1 | > 25 µM (inactive) | > 25 µM
31 | Cc1cc(-c2ccccc2)nc2cc(C(=O)N(Cc3ccccc3)Cc3ccccc3)nn12 | 8.35 µM | > 25 µM
32 | O=C(Oc1cccnc1)c1ccc(Cl)c(Cl)c1 | > 25 µM (inactive) | > 25 µM
33 | Cc1cc(C)cc(NS(=O)(=O)c2ccc(Oc3ncc(C(F)(F)F)cc3Cl)cc2)c1 | 10.9 µM | > 25 µM
34 | COc1ccc2ccc3c(c2c1)N=CC1(O3)N(C)c2ccccc2C1(C)C (configuration not stated) | 6.02 µM | > 25 µM
35 | COC(=O)C1=C(O)/C(=C\c2ccc(CNC(=O)C(=O)Nc3ccc(C)cc3)o2)N=C1C | > 25 µM (inactive) | > 25 µM
36 | COc1cc(SC#N)ccc1N=Cc1c(C)[nH]n(-c2ccc(C)cc2)c1=O | 17.4 µM | > 25 µM
37 | Cc1ccc2nc(-c3ccccc3)c(CN3CCN(c4ccccc4F)CC3)n2c1 | 15.6 µM | > 25 µM
38 | O=C(NC(=S)NCCC1=CCCCC1)c1ccccc1Br | 20.9 µM | > 25 µM
39 | Cc1ccc(Cn2nc3c(cc2=O)CCc2ccccc2-3)cc1 | > 25 µM (inactive) | > 25 µM
40 | CCCCOP(=O)(OCCCC)C(Nc1ccccc1)c1ccc2c(c1)OCO2 (configuration not stated) | 20.3 µM | > 25 µM
41 | O=C(COC(=O)c1ccccc1C(=O)c1ccc(Cl)c([N+](=O)[O-])c1)NC1CCCCCC1 | > 25 µM (inactive) | > 25 µM
